Residues, ends and D or L forms follow the SMILES beside them.
Target: T1, HIV integrase (Human immunodeficiency virus type 1 group M subtype B, UniProt P04585)
T1 construct: The HIV integrase used in these assays was expressed in E. coli; made in house; host or cells: E. coli
Assay: biochemical
Assay type: biochemical
Settings: not given
Description: HIV integrase activity was assayed by site-specific cleavage and integration of a 28 base pair synthetic oligonucleotide substrate representing HIV-1 U5 essentially as described by Vink et al., Nucl. Acids Res. 21:1419-1425 (1993), which is incorporated herein by reference. The HIV integrase used in these assays was expressed in E. coli and purified to near homogeneity.
Briefly, 0.2 pmol 5'-^32 P-oligonucleotide substrate and 2 μM HIV integrase were incubated at 37° C. for 1 hr in 10 μl assay buffer (10 mM MOPS, pH 7.2, 50 mM NaCl, 3 mM MnCl2, 0.05 mM EDTA, 0.1 mM β-mercaptoethanol, 4% glycerol). Control integrase activity was determined in the absence of any peptide. The activity of a peptide to be tested was examined by adding the peptide to the appropriate concentration in a 2 μl volume. Reactions were stopped by addition of 10 μl formamide loading dye (95% formamide, 20 mM EDTA, 0.05% bromophenol blue, 0.05% xylene cyanol) and incubation at 80° C. for 3 min. A 5 μl aliquot of the sample was separated by electrophoresis on a 12% denaturing polyacrylamide gel. Migration was detected by autoradiography and integrase activity was quantified by densitometry. Inhibition of integrase activity by a peptide corresponded with the disappearance of the cleavage and integration products.

Point of comparison: NCCCC[C@H](NC(=O)[C@H](CS)NC(=O)[C@@H](N)Cc1cnc[nH]1)C(=O)N[C@@H](Cc1ccccc1)C(=O)N[C@@H](Cc1c[nH]c2ccccc12)C(=O)N[C@@H](Cc1c[nH]c2ccccc12)C(N)=O [compound 19] (H-HCKFWW-NH2), IC50 2 µM. Against it:
- NCCCC[C@H](NC(=O)[C@H](CS)NC(=O)[C@@H](N)Cc1c[nH]cn1)C(=O)N[C@@H](Cc1ccccc1)C(=O)N[C@@H](Cc1c[nH]c2ccccc12)C(=O)N[C@@H](Cc1ccccc1)C(N)=O [compound 15] (H-HCKFWF-NH2) — 2.5-fold higher, 5 µM
- C[C@H](NC(=O)[C@H](Cc1c[nH]c2ccccc12)NC(=O)[C@H](Cc1ccccc1)NC(=O)[C@H](CCCCN)NC(=O)[C@H](CS)NC(=O)[C@@H](N)Cc1c[nH]cn1)C(N)=O [compound 27] (H-HCKFWA-NH2) — 100-fold higher, 210 µM
- C[C@H](NC(=O)[C@H](CS)NC(=O)[C@@H](N)Cc1c[nH]cn1)C(=O)N[C@@H](Cc1ccccc1)C(=O)N[C@@H](Cc1c[nH]c2ccccc12)C(=O)N[C@@H](Cc1c[nH]c2ccccc12)C(N)=O [compound 24] (H-HCAFWW-NH2) — 24-fold higher, 49 µM
- N=C(N)NCCC[C@H](NC(=O)[C@H](Cc1c[nH]c2ccccc12)NC(=O)[C@H](Cc1ccccc1)NC(=O)[C@H](CCCCN)NC(=O)[C@H](CS)NC(=O)[C@@H](N)Cc1c[nH]cn1)C(N)=O [compound 3] (H-HCKFWR-NH2) — 4-fold higher, 8 µM
- CC[C@H](C)[C@H](NC(=O)[C@H](Cc1c[nH]c2ccccc12)NC(=O)[C@H](Cc1ccccc1)NC(=O)[C@H](CCCCN)NC(=O)[C@H](CS)NC(=O)[C@@H](N)Cc1c[nH]cn1)C(N)=O [compound 11] (H-HCKFWI-NH2) — 2-fold higher, 4 µM
- C[C@H](NC(=O)[C@H](Cc1ccccc1)NC(=O)[C@H](CCCCN)NC(=O)[C@H](CS)NC(=O)[C@@H](N)Cc1c[nH]cn1)C(=O)N[C@@H](Cc1c[nH]c2ccccc12)C(N)=O [compound 26] (H-HCKFAW-NH2) — 75-fold higher, 150 µM
- C[C@H](NC(=O)[C@H](CCCCN)NC(=O)[C@H](CS)NC(=O)[C@@H](N)Cc1c[nH]cn1)C(=O)N[C@@H](Cc1c[nH]c2ccccc12)C(=O)N[C@@H](Cc1c[nH]c2ccccc12)C(N)=O [compound 25] (H-HCKAWW-NH2) — 4-fold higher, 8 µM
- C[C@H](NC(=O)[C@@H](N)Cc1c[nH]cn1)C(=O)N[C@@H](CCCCN)C(=O)N[C@@H](Cc1ccccc1)C(=O)N[C@@H](Cc1c[nH]c2ccccc12)C(=O)N[C@@H](Cc1c[nH]c2ccccc12)C(N)=O [compound 23] (H-HAKFWW-NH2) — 15-fold higher, 30 µM
- C[C@H](N)C(=O)N[C@@H](CS)C(=O)N[C@@H](CCCCN)C(=O)N[C@@H](Cc1ccccc1)C(=O)N[C@@H](Cc1c[nH]c2ccccc12)C(=O)N[C@@H](Cc1c[nH]c2ccccc12)C(N)=O [compound 22] (H-ACKFWW-NH2) — 26-fold higher, 51 µM

Same assay, conditions: 50 μM peptide; results normalized to His-Cys-Lys-Phe-Trp-Trp-NH2 (SEQ ID NO: 19)

Point of comparison: NCCCC[C@H](NC(=O)[C@H](CS)NC(=O)[C@@H](N)Cc1c[nH]cn1)C(=O)N[C@@H](Cc1ccccc1)C(=O)N[C@@H](Cc1c[nH]c2ccccc12)C(=O)N1CCC[C@H]1C(N)=O [compound 16] (H-HCKFWP-NH2), “% Inhibition of HIV integrase activity” value 45%. Against it:
- CC(C)C[C@H](NC(=O)[C@H](Cc1c[nH]c2ccccc12)NC(=O)[C@H](Cc1ccccc1)NC(=O)[C@H](CCCCN)NC(=O)[C@H](CS)NC(=O)[C@@H](N)Cc1c[nH]cn1)C(N)=O [compound 12] (H-HCKFWL-NH2) — lower, 8%
- NCCCC[C@H](NC(=O)[C@H](Cc1c[nH]c2ccccc12)NC(=O)[C@H](Cc1ccccc1)NC(=O)[C@H](CCCCN)NC(=O)[C@H](CS)NC(=O)[C@@H](N)Cc1c[nH]cn1)C(N)=O [compound 13] (H-HCKFWK-NH2) — lower, 34%
- NCCCC[C@H](NC(=O)[C@H](CS)NC(=O)[C@@H](N)Cc1c[nH]cn1)C(=O)N[C@@H](Cc1ccccc1)C(=O)N[C@@H](Cc1c[nH]c2ccccc12)C(=O)N[C@@H](Cc1ccccc1)C(N)=O [compound 15] (H-HCKFWF-NH2) — higher, 95%
- NCCCC[C@H](NC(=O)[C@H](CS)NC(=O)[C@@H](N)Cc1c[nH]cn1)C(=O)N[C@@H](Cc1ccccc1)C(=O)N[C@@H](Cc1c[nH]c2ccccc12)C(=O)N[C@@H](CCC(=O)O)C(N)=O [compound 7] (H-HCKFWE-NH2) — lower, 28%
- NCCCC[C@H](NC(=O)[C@H](CS)NC(=O)[C@@H](N)Cc1c[nH]cn1)C(=O)N[C@@H](Cc1ccccc1)C(=O)N[C@@H](Cc1c[nH]c2ccccc12)C(=O)N[C@@H](CS)C(N)=O [compound 6] (H-HCKFWC-NH2) — lower, 30%
- C[C@@H](O)[C@H](NC(=O)[C@H](Cc1c[nH]c2ccccc12)NC(=O)[C@H](Cc1ccccc1)NC(=O)[C@H](CCCCN)NC(=O)[C@H](CS)NC(=O)[C@@H](N)Cc1c[nH]cn1)C(N)=O [compound 18] (H-HCKFWT-NH2) — lower, 8%
- CC(C)[C@H](NC(=O)[C@H](Cc1c[nH]c2ccccc12)NC(=O)[C@H](Cc1ccccc1)NC(=O)[C@H](CCCCN)NC(=O)[C@H](CS)NC(=O)[C@@H](N)Cc1c[nH]cn1)C(N)=O [compound 21] (H-HCKFWV-NH2) — higher, 85%
- N=C(N)NCCC[C@H](NC(=O)[C@H](Cc1c[nH]c2ccccc12)NC(=O)[C@H](Cc1ccccc1)NC(=O)[C@H](CCCCN)NC(=O)[C@H](CS)NC(=O)[C@@H](N)Cc1c[nH]cn1)C(N)=O [compound 3] (H-HCKFWR-NH2) — higher, 88%
- CSCC[C@H](NC(=O)[C@H](Cc1c[nH]c2ccccc12)NC(=O)[C@H](Cc1ccccc1)NC(=O)[C@H](CCCCN)NC(=O)[C@H](CS)NC(=O)[C@@H](N)Cc1c[nH]cn1)C(N)=O [compound 14] (H-HCKFWM-NH2) — lower, 42%
- C[C@H](NC(=O)[C@H](Cc1c[nH]c2ccccc12)NC(=O)[C@H](Cc1ccccc1)NC(=O)[C@H](CCCCN)NC(=O)[C@H](CS)NC(=O)[C@@H](N)Cc1c[nH]cn1)C(N)=O [compound 2] (H-HCKFWA-NH2) — lower, 2%
- NCCCC[C@H](NC(=O)[C@H](CS)NC(=O)[C@@H](N)Cc1c[nH]cn1)C(=O)N[C@@H](Cc1ccccc1)C(=O)N[C@@H](Cc1c[nH]c2ccccc12)C(=O)N[C@@H](Cc1c[nH]c2ccccc12)C(N)=O [compound 19] (H-HCKFWW-NH2) — higher, 100%
- CC[C@H](C)[C@H](NC(=O)[C@H](Cc1c[nH]c2ccccc12)NC(=O)[C@H](Cc1ccccc1)NC(=O)[C@H](CCCCN)NC(=O)[C@H](CS)NC(=O)[C@@H](N)Cc1c[nH]cn1)C(N)=O [compound 11] (H-HCKFWI-NH2) — higher, 96%
- NCCCC[C@H](NC(=O)[C@H](CS)NC(=O)[C@@H](N)Cc1c[nH]cn1)C(=O)N[C@@H](Cc1ccccc1)C(=O)N[C@@H](Cc1c[nH]c2ccccc12)C(=O)N[C@@H](Cc1ccc(O)cc1)C(N)=O [compound 20] (H-HCKFWY-NH2) — higher, 75%
- NCCCC[C@H](NC(=O)[C@H](CS)NC(=O)[C@@H](N)Cc1c[nH]cn1)C(=O)N[C@@H](Cc1ccccc1)C(=O)N[C@@H](Cc1c[nH]c2ccccc12)C(=O)N[C@@H](CCC(N)=O)C(N)=O [compound 8] (H-HCKFWQ-NH2) — lower, 8%
- NCCCC[C@H](NC(=O)[C@H](CS)NC(=O)[C@@H](N)Cc1c[nH]cn1)C(=O)N[C@@H](Cc1ccccc1)C(=O)N[C@@H](Cc1c[nH]c2ccccc12)C(=O)N[C@@H](Cc1c[nH]cn1)C(N)=O [compound 10] (H-HCKFWH-NH2) — higher, 72%
- NCCCC[C@H](NC(=O)[C@H](CS)NC(=O)[C@@H](N)Cc1c[nH]cn1)C(=O)N[C@@H](Cc1ccccc1)C(=O)N[C@@H](Cc1c[nH]c2ccccc12)C(=O)N[C@@H](CC(=O)O)C(N)=O [compound 5] (H-HCKFWD-NH2) — lower, 18%
- NCCCC[C@H](NC(=O)[C@H](CS)NC(=O)[C@@H](N)Cc1c[nH]cn1)C(=O)N[C@@H](Cc1ccccc1)C(=O)N[C@@H](Cc1c[nH]c2ccccc12)C(=O)N[C@@H](CO)C(N)=O [compound 17] (H-HCKFWS-NH2) — lower, 40%
- NCCCC[C@H](NC(=O)[C@H](CS)NC(=O)[C@@H](N)Cc1c[nH]cn1)C(=O)N[C@@H](Cc1ccccc1)C(=O)N[C@@H](Cc1c[nH]c2ccccc12)C(=O)N[C@@H](CC(N)=O)C(N)=O [compound 4] (H-HCKFWN-NH2) — lower, 30%
- NCCCC[C@H](NC(=O)[C@H](CS)NC(=O)[C@@H](N)Cc1c[nH]cn1)C(=O)N[C@@H](Cc1ccccc1)C(=O)N[C@@H](Cc1c[nH]c2ccccc12)C(=O)NCC(N)=O [compound 9] (H-HCKFWG-NH2) — higher, 82%

Reference: patent publication US5578573A, “Viral integrase inhibiting peptides” (priority 1995, dated 1996)
